Measurements reported in patent US20240307342A1, “Treatment of the adverse cardiovascular effects of cannabinoids” (GreenStone Biosciences, Inc., priority 2022, published 2024).
Read-outs that look alike come from different tables or passages of the source.

Legend:
C57BL/6J mice [1] = experiment: 30-day C57BL/6J mouse model of Δ9-THC-induced endothelial dysfunction, oxidative stress and inflammation; details: for endothelial function (wire myograph, thoracic aorta): 30 days, genistein = Δ9-THC plus genistein; for circulating levels of glutathione / plasma interleukins IL-6, IL-3 and IL-10: Δ9-THC alone; for circulating levels of glutathione: genistein = co-treatment; for plasma interleukins IL-6, IL-3 and IL-10: genistein = cotreatment
Source text: Seven-week-old male C57BL/6J mice were obtained from Jackson Laboratory (Bar Harbor, ME, USA). […] Organs were collected, weighed, and fixed with 4% paraformaldehyde (PFA). The thoracic aortas (TAs) were surgically dissected out and cleaned from the surrounding connective tissue for all groups. The TAs were transferred to ice-cold Krebs'-Henseleit solution and cut into segments of 2 mm. The artery segments were mounted in wire-myograph chambers for isometric tension recordings (DanishMyo Technology [DMT]).The chambers contained Krebs'-Henseleit solution. All chambers were aerated with 95% 02/5% CO2, and the temperature was kept constant at 37° C. to mimic physiological conditions. After a manual stabilization and normalization procedure, the PowerLab4/25-Chart7 acquisition systems (AD Instruments Ltd) was used to record force and convert it into tension. The TA segments were pre-constricted using either […] 5HT serotonin (5HT) or U46619. A cumulative application of acetylcholine ([…]) was performed, and the induced vascular dilatations were measured. Subsequently, concentration-response relationship curves were established for each group of 3 mice. Time-matched dimethylsulfoxide (DMSO) application was performed in a separate chamber as the control for all experiments.

hiPSC-ECs [2] = experiment: oxidative stress and inflammation readouts in hiPSC-ECs; type: cell-based, human; details: for expression of proinflammatory cytokines and chemokines / inflammation-related genes / TLR4 expression / expression of ROS-related genes NOX1 and iNOS / mRNA expression of antioxidant-related genes (SOD1, SOD2, CAT, GPX1): Δ9-THC alone; for expression of proinflammatory cytokines and chemokines / inflammation-related genes: genistein or AM6545 = reversal of the Δ9-THC-induced effect; for TLR4 expression / expression of ROS-related genes NOX1 and iNOS / mRNA expression of antioxidant-related genes (SOD1, SOD2, CAT, GPX1): genistein = with Δ9-THC
[3] = system: LDL receptor knock-out mice (B6.129S7-Ldlr^tm1Her/J); experiment: atherosclerosis in LDL receptor knock-out mice on high-fat diet; type: in vivo, mouse; details: for serum lipid profiles or blood pressure: 12 weeks high-fat diet, genistein = cotreatment with Δ9-THC; for CD68-positive area in the aortic root (macrophage recruitment) / plaque size (Oil Red O; aortic root cross-sections and en face thoracic aorta): 12 weeks, genistein = co-treatment with Δ9-THC
Description: After 12 weeks, the mice were euthanized, and the atherosclerotic lesion area was examined by cross-sections of the aortic root and an en face analysis of the thoracic aorta. […] Macrophage recruitment in the aortic root was analyzed using aortic plaque stained with an anti-CD68 antibody.

hiPSC-ECs [4] = experiment: monocyte adhesion to hiPSC-ECs; type: cell-based, human; details: Δ9-THC alone; genistein = with Δ9-THC
hiPSC-ECs [5] = experiment: cytotoxicity in hiPSC-ECs
[6] = system: human cardiac fibroblasts-ventricular (NHCF-V); experiment: cytotoxicity in cardiac fibroblasts
[7] = system: human endothelial cells (HUVECs and HCAECs); experiment: cytotoxicity in human endothelial cells
human endothelial cells = experiment: inflammation and antioxidant gene expression in human endothelial cells
ApoE^−/− mice = experiment: ApoE−/− partial carotid artery ligation (PCAL) atherosclerosis model; type: in vivo, mouse; details: for plaque area (Oil Red O), ligated carotid artery: 10 days high-fat diet, genistein = cotreatment with Δ9-THC; for CD68-positive area / F4/80-positive area, ligated carotid artery: genistein = co-treatment with Δ9-THC
C57BL/6J mice [8] = experiment: neurobehavioral testing (Billy Martin tetrad); type: in vivo, mouse
CB1 [9] = molecular target: T1, CB1 (Homo sapiens, UniProt P21554); experiment: CB1 radioligand binding assay
T1 sequence (P21554 whole entry): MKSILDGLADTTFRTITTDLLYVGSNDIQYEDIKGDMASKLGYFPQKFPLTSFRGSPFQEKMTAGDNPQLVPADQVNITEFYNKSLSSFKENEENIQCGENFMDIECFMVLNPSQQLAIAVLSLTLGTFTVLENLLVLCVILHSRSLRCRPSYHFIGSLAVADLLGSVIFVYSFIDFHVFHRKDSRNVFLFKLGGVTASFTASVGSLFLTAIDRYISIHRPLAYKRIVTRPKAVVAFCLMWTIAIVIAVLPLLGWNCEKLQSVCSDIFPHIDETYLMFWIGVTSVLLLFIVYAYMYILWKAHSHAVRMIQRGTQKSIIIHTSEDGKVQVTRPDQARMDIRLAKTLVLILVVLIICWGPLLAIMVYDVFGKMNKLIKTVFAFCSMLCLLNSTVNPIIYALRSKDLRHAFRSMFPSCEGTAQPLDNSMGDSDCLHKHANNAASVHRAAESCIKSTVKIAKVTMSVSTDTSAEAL

CB1 [10] = molecular target: T1, CB1; details: reported as an agonist; cited from earlier work
CB1 [11] = molecular target: T1, CB1; experiment: in vitro GTPase assay; type: biochemical
[12] = not told; cited from earlier work
[13] = in vivo; cited from earlier work
human CB2 = human CB2 (Homo sapiens, UniProt P34972); details: reported as an agonist; cited from earlier work
human CB2, sequence (P34972 whole entry): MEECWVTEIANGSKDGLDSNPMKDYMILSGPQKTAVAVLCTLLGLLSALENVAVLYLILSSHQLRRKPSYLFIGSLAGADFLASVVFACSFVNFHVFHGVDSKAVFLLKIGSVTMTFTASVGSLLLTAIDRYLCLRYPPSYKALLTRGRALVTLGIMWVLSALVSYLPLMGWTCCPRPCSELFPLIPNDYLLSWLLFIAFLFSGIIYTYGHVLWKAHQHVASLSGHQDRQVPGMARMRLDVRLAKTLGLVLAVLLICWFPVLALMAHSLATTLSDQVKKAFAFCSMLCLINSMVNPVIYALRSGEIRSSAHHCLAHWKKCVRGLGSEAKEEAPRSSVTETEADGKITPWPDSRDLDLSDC

[14] = molecular target: G protein-coupled estrogen receptor (Homo sapiens, UniProt Q99527); details: agonist; cited from earlier work
G protein-coupled estrogen receptor, sequence (Q99527 whole entry): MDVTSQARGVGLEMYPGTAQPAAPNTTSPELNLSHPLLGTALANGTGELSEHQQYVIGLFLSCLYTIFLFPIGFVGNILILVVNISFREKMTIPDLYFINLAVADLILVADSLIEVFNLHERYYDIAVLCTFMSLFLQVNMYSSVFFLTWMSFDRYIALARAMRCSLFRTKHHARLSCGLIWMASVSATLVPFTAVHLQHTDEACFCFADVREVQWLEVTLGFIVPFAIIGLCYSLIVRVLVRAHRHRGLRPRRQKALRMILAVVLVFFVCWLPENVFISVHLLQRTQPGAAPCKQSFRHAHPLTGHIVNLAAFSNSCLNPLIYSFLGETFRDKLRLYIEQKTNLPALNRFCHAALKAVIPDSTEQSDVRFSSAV

Human subjects = experiment: human study in subjects ingesting medicinal cannabinoids; type: in vivo; details: 1 or 5 mg/Kg/day versus placebo
[15] = Yang et al. 2012; cited from earlier work
[16] = Δ9-THC 20 mg/kg i.p., 60 min post-dosing

SMILES	mRNA expressions of inflammation induced by Δ9-THC in mouse thoracic artery tissues (C57BL/6J mice [1]; with Δ9-THC)	expression of proinflammatory cytokines and chemokines / inflammation-related genes (hiPSC-ECs [2])	serum lipid profiles or blood pressure [3]	CD68-positive area in the aortic root (macrophage recruitment) [3]	plaque size (Oil Red O; aortic root cross-sections and en face thoracic aorta) [3]	TLR4 expression (hiPSC-ECs [2])	expression of ROS-related genes NOX1 and iNOS (hiPSC-ECs [2])	mRNA expression of antioxidant-related genes (SOD1, SOD2, CAT, GPX1) (hiPSC-ECs [2])	monocyte adhesion to hiPSC-ECs (hiPSC-ECs [4])	plaque area (Oil Red O), ligated carotid artery (ApoE^−/− mice)	CD68-positive area (ApoE^−/− mice)	F4/80-positive area, ligated carotid artery (ApoE^−/− mice)	endothelial function (wire myograph, thoracic aorta) (C57BL/6J mice [1])	circulating levels of glutathione (C57BL/6J mice [1])	plasma interleukins IL-6, IL-3 and IL-10 (C57BL/6J mice [1])	other results
Cc1c(C(=O)NN2CCCCC2)nn(-c2ccc(Cl)cc2Cl)c1-c1ccc(Cl)cc1 [rimonabant]	ameliorated															
Cc1c(C(=O)NN2CCS(=O)(=O)CC2)nn(-c2ccc(Cl)cc2Cl)c1-c1ccc(C#CCCC#N)cc1 [AM6545]		reversed														
CCCCCc1cc(O)c2c(c1)OC(C)(C)[C@@H]1CCC(C)=C[C@@H]21 [Δ^9-THC, (6aR,10aR)-6,6,9-trimethyl-3-pentyl-6a,7,8,10a-tetrahydro-6H-benzo[c]chromen-1-ol]		increased	Neither Δ^9-THC nor cotreatment with Δ^9-THC and genistein affected	significantly increased	significantly increased plaque size	induced	upregulated	decreased	increased adhesion	increased	significantly increased	significantly increased	induced endothelial dysfunction	decreased	elevated	I kappa B (IκB) (hiPSC-ECs [2]): inhibited; TNFα concentration in the cell culture medium (hiPSC-ECs [2]): increased; hydrogen peroxide (H2O2) levels (hiPSC-ECs [2]; immunofluorescence staining): increased; duration of Δ9-THC-induced expression of proinflammatory cytokines and chemokines after the initial exposure (hiPSC-ECs [2]; Δ9-THC 48 hours, then wash-out, no genistein): 8 to 10 days; cytotoxicity (hiPSC-ECs [5]): induced cytotoxicity; cytotoxicity [6]: without any adverse effect; cytotoxicity [7]: induced cytotoxicity; antioxidant-related gene expression (human endothelial cells): reduced; expression of inflammation-related genes (human endothelial cells): induced; analgesia (hot plate 55° C.) (C57BL/6J mice [8]; Δ9-THC 20 mg/kg i.p.): analgesia; hypothermia (rectal body temperature) (C57BL/6J mice [8]; [16]): hypothermia; mobility (open field activity chamber) (C57BL/6J mice [8]; [16]): decreased mobility; sedation (bar test) (C57BL/6J mice [8]; [16]): sedation; plasma concentration of Δ9-THC (C57BL/6J mice [1]; intraperitoneal injection, LC-MS): ~100 ng/mL
O=c1c(-c2ccc(O)cc2)coc2cc(O)cc(O)c12 [genistein, 5,7-dihydroxy-3-(4-hydroxyphenyl)-4H-1-benzopyran-4-one]	ameliorated	reversed	Neither Δ^9-THC nor cotreatment with Δ^9-THC and genistein affected	rescued	ameliorated plaque size	disrupted	salutatory effect	ameliorated	reversed	ameliorated plaque size	reduced	decreased	mitigated	ameliorated	significantly reduced	IC50 (CB1 [9]): 150 nM; IC50 (CB1 [10]): 150 nM; mode of action against CB1 (CB1 [11]): neutral antagonist; NF-κB phosphorylation (hiPSC-ECs [2]; genistein with Δ9-THC): attenuated; cell wall permeability [12]: high cell wall permeability; bioavailability [13]: low bioavailability; IC50 (human CB2): > 50000 nM; Ki (human CB2): > 50000 nM; affinity [14]: 133 nM; incidence of adverse cardiovascular effects of cannabinoid ingestion (Human subjects): dose-related lower incidence; Δ9-THC neurobehavioral effects (C57BL/6J mice [8]; genistein 50 mg/kg p.o. in co-treatment with Δ9-THC 20 mg/kg i.p.): could not attenuate; tetrad effects (C57BL/6J mice [8]; genistein alone, 50 mg/kg p.o.): did not affect tetrad effects; blood-brain barrier (BBB) penetration [15]: poor blood-brain barrier (BBB) penetration; NF-κB phosphorylation and SOD expression in mouse serum (C57BL/6J mice [1]; with Δ9-THC): attenuated; oxidative stress-related gene expression (C57BL/6J mice [1]; with Δ9-THC): rescued
